SMILES strings stand for the structures.

Test [1] has as its system HepG2 (hepatocellular carcinoma) cell line. Description: CellTiter-Glo luminescent cell viability assay, HepG2. The format is cell-based, human. Particulars: Homo sapiens; for viability at 4 µM / viability at 10 µM: HepG2, HepG, 72 h; for viability at 4 µM: compound at 4 μM; for viability at 10 µM: compound at 10 μM; for EC50: HepG2 cell line, 72 h incubation, CellTiter-Glo, read-out: EC50, growth inhibition of HepG2. In a few lines:
(§1)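 In a 72 h viability assay, compound-treated cells were compared against matched H2O or DMSO diluent controls by luminescence, points in at least duplicate.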

Test [2] relates to HCT-116 (colorectal carcinoma) cell line. Briefly: CellTiter-Glo luminescent cell viability assay, HCT-116. Particulars: Homo sapiens; for viability at 4 µM: HCT-116, compound at 4 μM; for viability at 4 µM / viability at 10 µM: 72 h; for viability at 10 µM: HCT-116, compound at 10 μM; for EC50: HCT-116 cell line, 72 h incubation, CellTiter-Glo, read-out: EC50, growth inhibition of HCT-116. The format is cell-based, human. A digest of the protocol: (§2)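 Luminescent signal, normalised to diluent-treated cultures, defines % viability; EC50 is the concentration lowering it to 50%. Cells had been exposed to compound for 72 h at 37 °C in medium with 10% FBS, at a constant H2O or DMSO percentage.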
In general terms: ATP-based viability assays read luminescence as a measure of living cells.

Test [3] deals with PANC-1 (prancreatic carcinoma) cell line. Briefly: CellTiter-Glo luminescent cell viability assay, PANC-1. The format is cell-based. Particulars: Homo sapiens; for viability at 4 µM: PANC-1, 4 μM; for viability at 4 µM / viability at 10 µM: 72 h, % of signal of diluent-treated cultures; for viability at 10 µM: PANC-1, 10 μM; for EC50: PANC-1 cell line, 72 h incubation, CellTiter-Glo, read-out: EC50 (growth inhibition assay of PANC-1 cell line). On the procedure:
All cell lines were maintained in medium containing 1% penicillin-streptomycin (Dutscher, P06-07100) and 10% Fetal Bovine Serum (Hyclone Dutscher, RZK35922) cultured at 37° C. with 5% CO2. HepG2 (hepatocellular carcinoma), cell line was cultured in Dulbecco's modified Eagle's medium low glucose (Gibco, 21885025), Huh7 (hepatocellular carcinoma), HCT-116 (colorectal carcinoma), PANC-1 (prancreatic carcinoma) and A375 (malignant melanoma) cell lines were cultured in Dulbecco's modified Eagle's medium (Dutscher, L0103). MOLM-14 (acute myeloid leukemia) cell line was maintained in MEM alpha medium (Gibco, 22561-021). 786-0 (renal adenocarcinoma) cell lines were maintained in RPMI 1640 medium (Dutscher, L0498).
Cell viability was measured using the CellTiter-Glo® luminescent cell viability assay as described by the manufacturer (Promega, Ref G7571) using an Infinite F200Pro luminometer (Tecan). Briefly, for adherent cells, cells were plated onto 96-well plates (white with clear bottom) in 90 μL of media per well and were allowed to grow overnight before the assay. For cells growing in suspension, cells were plated onto 96-well plates 1 h before the assay.
Compounds were resuspended in H2O or DMSO and added at different concentrations to each well, and cell cultures were incubated for 72 h. Each diluent (H2O or DMSO) were used as a control, and all compounds were tested in a constant percentage of H2O or DMSO. On the day of the reading, plates are equilibrated 30 min at room temperature before the addition of 100 μL of CellTiter-Glo® and luminescence was measured using an Infinite F200Pro (Tecan). % cell viability were expressed as a percentage of the signal obtained for cell cultures treated with diluent. EC50 values were determined as the dose of compound required to reduce luminescent values to 50% of the signal obtained for cell cultures treated with diluent. The experimental data were analyzed using a computer program, Graphpad Prism v5 (GraphPad Software, Inc. La Jolla, Calif.). All points were at least done in duplicate.

Test [4] deals with Huh7 (hepatocellular carcinoma) cell line. Briefly: CellTiter-Glo luminescent cell viability assay, Huh7. Format: cell-based, human. Conditions: Homo sapiens, Huh-7; for viability at 4 µM: Huh7, compound at 4 μM; for viability at 4 µM / viability at 10 µM: 72 h; for viability at 10 µM: Huh7, compound at 10 μM; for EC50: Huh7 cell line, 72 h incubation, CellTiter-Glo, read-out: EC50, growth inhibition of Huh7. A digest of the protocol:
as §1

Test [5] relates to A375 (malignant melanoma) cell line. Briefly: CellTiter-Glo luminescent cell viability assay, A375. Format: cell-based, human. Conditions: Homo sapiens, A-375; for viability at 4 µM: A375, compound at 4 μM; for viability at 4 µM / viability at 10 µM: 72 h; for viability at 10 µM: A375, compound at 10 μM; for EC50: A375 cell line, 72 h incubation, CellTiter-Glo, read-out: EC50, growth inhibition of A375. A digest of the protocol:
as §2

Test [6] deals with 786-O (renal adenocarcinoma) cell line. Description: CellTiter-Glo luminescent cell viability assay, 786-O. The format is cell-based, human. Conditions: Homo sapiens, 786-0; for EC50: 786-O cell line, 72 h incubation, CellTiter-Glo, read-out: EC50, growth inhibition of 786-O; for viability at 4 µM / viability at 10 µM: 786-O, 72 h; for viability at 4 µM: compound at 4 μM; for viability at 10 µM: compound at 10 μM. A digest of the protocol:
as §2

Test [7] relates to MOLM-14 (acute myeloid leukemia) cell line. Description: CellTiter-Glo luminescent cell viability assay, MOLM-14. The format is cell-based, human. Particulars: Homo sapiens; for viability at 4 µM: MOLM-14, compound at 4 μM; for viability at 4 µM / viability at 10 µM: 72 h; for viability at 10 µM: MOLM-14, compound at 10 μM; for EC50: MOLM-14 cell line, 72 h incubation, CellTiter-Glo, read-out: EC50, growth inhibition of MOLM-14. A digest of the protocol:
as §1

With `Cc1cc(Nc2nc3ccccc3c(N3CCC(NC(C)(C)C)CC3)c2C#N)ccc1F` [Compound 3250CN, 2-(3-methyl-4-fluorophenylamino)-3-cyano-4-[4-(tert-butylamino)piperidin-1-yl]quinoline], the viability (commonly a read-out of living cells in per cent, often relative to untreated cells) at 4 µM in test [1] was 71%; in test [2], 0.2%; in test [3], 94.7%; in test [4], 67%; in test [5], 0.7%; in test [6] it was 30.3%. Besides, the viability at 4 µM in test [7] was determined as 87.5%. For the same molecule, the viability at 10 µM came out at 0.5% in test [1]; 0.1% in test [2]; 13.1% in test [3]; 0.5% in test [4]; 0.3% in test [5]; 0.4% in test [6]. Also, in test [7], the viability at 10 µM was found to be 0.6%. Moreover, the EC50 (commonly the concentration giving half of the maximal effect) in test [1] lay in the range of 0.5 to 5 µM; in test [2], 0.5 to 5 µM; in test [3], 5 to 10 µM; in test [4] it was 5 to 10 µM; in test [5] it was 0.5 to 5 µM; in test [6] it was 0.5 to 5 µM. The EC50 in test [7] was in the range of 5 to 10 µM.

Turning to `N#Cc1c(NCc2ccc(Cl)cc2)nc2ccccc2c1N1CCC(N2CCCC2)C1` (stereo not shown) [Compound 148CN, 2-(4-chloro-benzylamino)-3-cyano-4-[3-(pyrrolidin-1-yl)pyrrolidin-1-yl]quinoline], the viability at 4 µM amounted to 104% in test [1]; 93.5% in test [2]; 102% in test [3]; 91.9% in test [4]; 94.1% in test [5]; 88.2% in test [6]. Moreover, in test [7], the viability at 4 µM came out at 92.9%. Also, the viability at 10 µM in test [1] was found to be 91.9%; in test [2] it was 92.2%; in test [3] it was 100%; in test [4], 80.8%; in test [5] it was 93.2%; in test [6], 67%. Further, the viability at 10 µM in test [7] was found to be 94.7%.

For the molecule `CC(C)(C)OC(=O)NC1CCN(c2c(C#N)c(NCc3ccc(Cl)cc3)nc3ccccc23)CC1` [Compound 182CN, 2-(4-chlorobenzylamino)-3-cyano-4-{4-[(tert-butyloxycarbonyl)amino]piperidin-1-yl}quinoline], the viability at 4 µM in test [1] worked out at 91.6%; in test [2] it was 66.9%; in test [3], 100%; in test [4] it was 86%; in test [5], 94.4%; in test [6], 89.9%. In test [7], the viability at 4 µM came out at 86.9%. Besides, the viability at 10 µM came out at 89.8% in test [1]; 47.7% in test [2]; 95.3% in test [3]; 76.2% in test [4]; 90.2% in test [5]; 83.9% in test [6]. Also, in test [7], the viability at 10 µM stood at 48.7%.

For the molecule `N#Cc1c(NCc2ccc(Cl)cc2)nc2ccccc2c1N1CCCC(N)C1` (stereo not shown) [Compound 3156CN, 2-(4-chlorobenzylamino)-3-cyano-4-(3-aminopiperidin-1-yl)quinoline], the viability at 4 µM in test [1] turned out to be 32.6%; in test [2], 52%; in test [3], 102%; in test [4] it was 83%; in test [5], 10%; in test [6], 77.8%. In addition, the viability at 4 µM in test [7] was found to be 92.8%. Moreover, the viability at 10 µM in test [1] is 0.5%; in test [2], 0.5%; in test [3], 0.9%; in test [4], 0.6%; in test [5] it was 0.4%; in test [6], 0.6%. In addition, the viability at 10 µM in test [7] amounted to 0.6%. The EC50 in test [1] is 0.5 to 5 µM; in test [2], 0.5 to 5 µM; in test [3] it was 5 to 10 µM; in test [4], 0.5 to 5 µM; in test [5], 0.5 to 5 µM; in test [6] it was 0.5 to 5 µM. Moreover, the EC50 in test [7] was in the range of 5 to 10 µM.

For `Cc1cccc2c(N3CCC(NC(C)(C)C)CC3)c(C#N)c(NCc3ccc(Cl)cc3)nc12` [Compound 414CN, 2-(4-chlorobenzylamino)-3-cyano-4-[4-(tert-butylamino)piperidin-1-yl]-8-methylquinoline], the viability at 4 µM in test [1] stood at 9%; in test [2], 0.3%; in test [3] it was 91%; in test [4], 79.8%; in test [5], 0.3%; in test [6], 0.7%. For the same molecule, the viability at 4 µM in test [7] came to 0.5%. Besides, the viability at 10 µM in test [1] is 0.5%; in test [2] it was 0.3%; in test [3] it was 0.8%; in test [4] it was 0.5%; in test [5] it was 0.4%; in test [6], 0.3%. Further, the viability at 10 µM in test [7] turned out to be 0.3%. The half-maximal effective concentration (EC50) in test [1] is 0.5 to 5 µM; in test [2], 0.5 to 5 µM; in test [3], 5 to 10 µM; in test [4] it was 0.5 to 5 µM; in test [5], 0.5 to 5 µM; in test [6], 0.5 to 5 µM. The EC50 in test [7] was in the range of 0.5 to 5 µM.

Take `CN1CCN(C2CCN(c3c(C#N)c(NCc4ccc(Cl)cc4)nc4ccccc34)CC2)CC1` [Compound 3188CN, 2-(4-chlorobenzylamino)-3-cyano-4-[4-(4-methylpiperazin-1-yl)piperidin-1-yl]quinoline]: the viability at 4 µM in test [1] was found to be 82.7%; in test [2], 42.9%; in test [3], 91.6%; in test [4], 85.2%; in test [5], 52.8%; in test [6], 64%. In test [7], the viability at 4 µM was found to be 108%. Moreover, the viability at 10 µM in test [1] is 0.6%; in test [2], 0.5%; in test [3] it was 3.5%; in test [4] it was 0.6%; in test [5], 0.4%; in test [6] it was 0.5%. Also, in test [7], the viability at 10 µM was 0.7%. Also, the concentration giving a half-maximal response (EC50) in test [1] fell in the range of 0.5 to 5 µM; in test [2], 0.5 to 5 µM; in test [3], 5 to 10 µM; in test [4], 0.5 to 5 µM; in test [5], 0.5 to 5 µM; in test [6], 0.5 to 5 µM. Besides, in test [7], the EC50 was 0.5 to 5 µM.
